Experimental data taken from patent publication US9096835B2, “DNA polymerase” (Medical Research Council, priority 2003, dated 2015).

How the values were obtained:
Format in all cases: biochemical
phage λ DNA template = test: Long PCR; conditions: standard PCR conditions, no auxiliary polymerases or processivity factors
Protocol: A PCR assay was used to screen and rank clones. Briefly, clones were normalized for activity in PCR with matched primers 3, 4 and activity with mismatched primers 1 and 2 (1 μM each) determined at minimal cycle number (15-25 cycles). Extension capability for different mismatches was determined by the same assay using mismatch primers 2 (C•C mismatch), 5 (A•A mismatch), 6 (G•G mismatch), 7 (G•A mismatch) with matched primer 3 or primer 1 (A•G mismatch) with matched primer 4. Incorporation of unnatural substrates in 50 cycle PCR was carried out using standard conditions and 50 μM […] dNTPs (Promega) or 50 μM FITC-12-dATP (Perkin-Elmer), Rhodamine-5-dUTP (Perkin-Elmer) or Biotin-16-dUTP (Roche) with equivalent amounts of the other 3 dNTPs (all 50 μM). Long PCR was carried out using a two-step cycling protocol as described (22) 94° C. for 2 minutes, followed by 20 cycles of (94° C. 15 sec, 68° C. 30 min) using 5 ng of phage λ DNA (New England Biolabs) template and either primers 9, 10, 11 with primer 12 or primer 13 with primers 10, 14.

[1] = Incorporation and extension of 5-nitroindole-5′-triphosphate; conditions: 50° C., identical conditions as 4D11 and 5D4; data not shown
Protocol: 50 pmol of ^32P-labelled primer and 100 pmol of template in a volume of 44 μl were annealed in 1× Taq buffer. 4D11 or 5D4 polymerase as cell lysate (6 μl) was added and reactions were incubated at 50° C. for 15 minutes followed by addition of d5NITP (1 μl in total volume of 50 µL final dNTP concentration 40 μM). 8 μl samples were taken at various time points and added to 8 μl stop solution (7M urea, 100 mM EDTA containing xylene cyanol F). At the end of the time course the 4 native dNTPs were added (final concentration each dNTP 40 μM) and reactions incubated at 50° C. for a further 30 minutes.

[2] = system: abasic sites and 5-hydroxy hydantoins; test: Hairpin ELISA lesion bypass screen; conditions: ELISA based activity screen
Text: The below protocol is a sensitive method to measure polymerase activity both for the incorporation of unnatural nucleotide substrates (added to the reaction mixture) or the extension or replication of unnatural nucleotide substrates (incorporated as part of the hairpin oligo).
The assay comprises a hairpin oligonucleotide which constitutes both primer and template in one. In contains as part of the hairpin a biotinylated dU residue, which allows capture of the hairpin oligonucleotide on streptavidin-coated surfaces.
The oligonucleotide folds up into a hairpin with a 5′ overhang, which serves as the template strand for the polymerase (typical sequence: 5′-AGCTACCATGCCTGCACGCAGTCGGCATCCGTCGCGACCACG TT5 TTCGTGGTCGCGACGGATGCCG-3′ (SEQ ID NO: 52), bases involved in hairpin formation are underlined, 3′ base is in bold, 5=dU-biotin).
Extension reactions are carried out in the presence of small amounts of a labelled nucleotide typically DIG-16-dUTP. Product is captured (for example on a streptavidin coated ELISA plate) and incorporation of labelled nucleotide into the product strand is measured (using for example an anti-DIG antibody) and taken as a measure of polymerase activity. […]

[3] = system: template containing a single 5-nitroindole; test: 5NI replication assay; conditions: primer extension, 60° C.
Protocol: Primer 26 was ^32P-labeled and annealed to template primer 27 (containing a single 5-nitroindole) in 1× Taq buffer, 0.1 or 0.5 U of the polymerase was added and reactions incubated at 60° C. for 15 mins, after which 40 μM of each dNTP were added and incubation at 60° C. continued for various times.

## wtTaq: Thermus aquaticus (Taq) wild type DNA polymerase [reference compound]
Phage λ DNA template
  size of targets amplified in long PCR: ≤ 9 kb
Phage λ DNA template; listed as WtTaq
  size of targets amplified in long PCR: ≤ 8.8 kb
[1]
  incorporation and extension of d5NITP: almost undetectable extension reactions

B1: 3D1: third round clone, four mismatch extension; SEQ ID NO: 98 (protein)
chain: MAMLPLFEPKGRVLLVDGHHLAYRTFFALKGPTTSRGEPVQVVYGFAKSLLKALKEDGYKAVFVVFDAKAPSFRHKAYEAYRAGRAPTPEDFPRQLALIKELVDLLGFTRLEVPGYEADDVLATLAKKAEKEGYEVRILTADRGLYQLVSDRVAVLHPEGHLITPEWLWEKYGLRPEQWVDFRALVGDPSDNLPGVKGIGEKTALKLLKEWGSLENLLKNLDRVKPENVREKIKAHLEDLRLSLELSRVRTDLPLEVDLAQRREPDREGLRAFLERLEFGSLFHEFGLLESPKALEEAPWPPPEGAFVGFVLSRKEPMWADLLALAAARGGRVHRAPEPYKALRDLKEARGLLAKDLSVLALREGLGLPPGDDPMLLAYLLDPSNTTPEGVARRYGGEWTEEAGERAALSERLFANLWGRLEGEERLLWLYREVERPLSAVLAHMEATGVRLDVAYLRALSLEVAEEIARLEAEVFRLAGHPFNLNSRDQLEMVLFDELRLPALGKTQKTGKRSTSAAVLEALREAHPIVEKILQYRELTKLKSTYIDPLSDLIHPRTGRLHTRFNQTATATGRLSSSDPNLQNIPVRTPLGQRIRRAFIAEEGWLLVVLDYSQIELRVLAHLSGDENLIRVFQEGRDIHTETASWMFGVPREAVDPLMRRAAKTINFGVLYGMSAHRLSQELAIPYEEAQAFIERYFQSFPKVRAWIEKTLEEGRRRGYVETLFGRRRYVPDLEARVKSVREAAERMAFNMPVQGTAADLMKLAMVKLFPRLGETGARMLLQVHDELVLEAPKERAEAVARLAKEAMEGVYPLAVPLEVEVGIGEDWLSAKG
modifications: Mutant Taq polymerase
[2]
  proficiency at lesion bypass compared with wild type Taq: up to two orders of magnitude

B2: 3A10: third round clone, abasic site bypass; SEQ ID NO: 86 (protein)
chain: MAMLPLFEPKGRVLLVDGHHLAYRTFFALKGLTTSRGEPVQVVYGFAKSLLKALKEDGYKAVFVVFDAKAPSFRHKAYEAYRAGRAPTPQDFPRQLALIKELVDLLGFTRLEVPGYEADDVLATLAKKAEKEGYEVRILTADRGLYQLVSDRVAVLHPEGHLITPEWLWEKYGLRPEQWVDFRALVGDPSDNLPGVKGIGEKTALKLLKEWGSLENLLKNLDRVKPENVREKIKAHLEDLRLSLELSRVRTDLPLEVDLAQGREPDREGLRAFLERLEFGSLLHEFGLLESPKALEEAPWPPPEGAFVGFVLSRKEPMWADLLALAAARGGRVHQAPEPYKALRDLKEARGLLAKDLSVLALREGLGLPPGDDPMLLAYLLDPSNTTPEGVARRYGGEWTEEAGERAALSERLFANLWGRLEGEERLLWLYREVERPLSAVLAHMETTGVRLDVAYLRALSLEVAEEIARLEAEVFRLAGRPFNLNSRDQLERVLFDELGLPAIGKTEKTGKRSTSAAVLEALREAHPIVEKILQYRELTKLKSTYIDPLPDLIHPRTGRLHTRFNQTATATGRLSSSDPNLQNIPVRTPLGQRIRRAFIAEEGWLLVVLDYSQMELRVLAHLSGDENLIRVFQEGKDIHTQTASWMFGVPPEAVDPLMRRAAKTVNFGVLYGMSAHRLSQELSIPYEEAVAFIERYFQSFPKVRAWIEKTLEEGRRRGYVETLFGRRRYVPDLNARMKSVRGAAERMAFNMPVQGTAADLMKLAMVKLFPRLREMGARMLLQVHDELLLEAPQARAEEVAALAKEAMEKAYPLAVPLEVEVGIGEDWLSAKE
modifications: Mutant Taq polymerase
[2]
  proficiency at lesion bypass compared with wild type Taq: up to two orders of magnitude

B3: M4: Taq mutant D58G, R74P, A109T, L245R, R343G, G370D, E520G, N583S, E694K, A743P; SEQ ID NO 2 (protein)
chain: MRGMLPLYEPKGRVLLVDGHHLAYRTFHALKGLTTSRGEPVQAVYGFAKSLLKALKEGGDAVIVVFDAKAPSFPHEAYGGYKAGRAPTPEDFPRQLALIKELVDLLGLTRLEVPGYEADDVLASLAKKAEKEGYEVRILTADKDLYQLLSDRIHVLHPEGYLITPAWLWEKYGLRPDQWADYRALTGDESDNLPGVKGIGEKTARKLLEEWGSLEALLKNLDRLKPAIREKILAHMDDLKLSWDRAKVRTDLPLEVDFAKRREPDRERLRAFLERLEFGSLLHEFGLLESPKALEEAPWPPPEGAFVGFVLSRKEPMWADLLALAAARGGRVHRAPEPYKALGDLKEARGLLAKDLSVLALREGLGLPPDDDPMLLAYLLDPSNTTPEGVARRYGGEWTEEAGERAALSERLFANLWGRLEGEERLLWLYREVERPLSAVLAHMEATGVRLDVAYLRALSLEVAEEIARLEAEVFRLAGHPFNLNSRDQLERVLFDELGLPAIGKTEKTGKRSTSAAVLGALREAHPIVEKILQYRELTKLKSTYIDPLPDLIHPRTGRLHTRFNQTATATGRLSSSDPNLQSIPVRTPLGQRIRRAFIAEEGWLLVALDYSQIELRVLAHLSGDENLIRVFQEGRDIHTETASWMFGVPREAVDPLMRRAAKTINFGVLYGMSAHRLSQELAIPYEEAQAFIKRYFQSFPKVRAWIEKTLEEGRRRGYVETLFGRRRYVPDLEARVKSVREPAERMAFNMPVQGTAADLMKLAMVKLFPRLEEMGARMLLQVHDELVLEAPKERAEAVARLAKEVMEGVYPLAVPLEVEVGIGEDWLSAKE
modifications: Mutant Thermus aquaticus DNA polymerase
[3]
  bypass of template strand 5NI: efficiently bypass template strand 5NI
